# pEC50: −log10 of the molar value. Where “and” joins values, the source holds several entries; their conditions need not be identical. Equal values may be shown once. Where a name gives a salt, the structure may show the parent alone. Read-outs that look alike come from different tables or passages of the source.
# Tests used:
# [1] = Stability of prodrug in Tris-HCl buffer
# Method: The stability of Iab was also evaluated, as described above, in Tris-HCl buffer (0.1 M, pH 7.5). The stability of Ibb was also evaluated, as described above, in Tris-HCl buffer (0.1 M, pH 7.5). The stability of Icb was also evaluated, as described above, in Tris-HCl buffer (0.1 M, pH 7.5).
# [2] = Stability (hydrolysis) of prodrug in fresh serum (dog); conditions: Dog Serum
# Method: (§2) The stability of Iab was studied in fresh blood and serum from rat, dog, monkey and human (n=2). The blood was collected in vacutainers containing K2EDTA (Becton Dickinson, Franklin Lakes, N.J.). The serum was collected in vacutainers containing no anticoagulant. Iab was incubated at a starting concentration of approximately 10 μM for 60-90 min at 37° C. Serial samples were taken at the pre-determined times. Aliquots of blood samples (200 μL) were first mixed with 100 μL of water followed by 400 μL of acetonitrile. The serum samples (50 μL) were added into microtainers containing K2EDTA (Becton Dickinson, Franklin Lakes, N.J.) followed by the addition of 100 μL of acetonitrile. The supernatant was analyzed for both Iab and IVa by LC/MS/MS. The stability of Ibb was studied in fresh blood and serum from rat, dog, monkey and human (n=2). The blood was collected in vacutainers containing K2EDTA (Becton Dickinson, Franklin Lakes, N.J.). The serum was collected in vacutainers containing no anticoagulant. Ibb was incubated at a starting concentration of approximately 15 μM for 90 min at 37° C. Serial samples were taken at the pre-determined times. Aliquots of blood samples (200 μL) were first mixed with 100 μL of water followed by 400 μL of acetonitrile. The serum samples (50 μL) were added into microtainers containing K2EDTA (Becton Dickinson, Franklin Lakes, N.J.) followed by the addition of 100 μL of acetonitrile. […] The stability of Icb was studied in fresh blood and serum from rat, dog, monkey and human (n=2). The blood was collected in vacutainers containing K2EDTA (Becton Dickinson, Franklin Lakes, N.J.). The serum was collected in vacutainers containing no anticoagulant. Icb was incubated at a starting concentration of approximately 10 μM for 90 min at 37° C. Serial samples were taken at the pre-determined times. Aliquots of blood samples (200 μL) were first mixed with 100 μL of water followed by 400 μL of acetonitrile. The serum samples (50 μL) were added into microtainers containing K2EDTA (Becton Dickinson, Franklin Lakes, N.J.) followed by the addition of 100 μL of acetonitrile.
# [3] = Stability (hydrolysis) of prodrug in fresh serum (human); conditions: Human Serum
# physchem = conditions: thermodynamic from solid
# [4] = Stability of prodrug in fresh EDTA blood (rat); conditions: for % IVa Formed (of starting concentration of Iab) / Iab / IVa Formed: Rat EDTA blood
# Method: as §2
# [5] = Stability of prodrug in fresh EDTA blood (human); conditions: Human EDTA blood
# Method: as §2
# [6] = Stability (hydrolysis) of prodrug in fresh serum (monkey); conditions: Monkey Serum
# Method: as §2
# [7] = Stability of prodrug in fresh EDTA blood (monkey); conditions: Monkey EDTA blood
# Method: as §2
# [8] = tested on: HIV-1 T-tropic strain LAI; assay: Antiviral assay: HIV-1 LAI infection of MT-2 cells, reverse transcriptase readout (EC50, Table 48); type: cell-based; conditions: Human immunodeficiency virus 1, MT2; read-out: EC50-LAI
# Excerpt: The materials and experimental procedures used to assess the anti-HIV activity of the parent compounds which are generated from the prodrugs in vivo are described below:
# • The human T cell line MT-2 and PM1 (AIDS Research and Reference Reagent Program, National Institutes of Health) were maintained and propagated in Medium RPMI-1640 (Invitrogen, Carlsbad, Calif.), containing 10% fetal Bovine serum. (FBS, Sigma, St. Louis, Mo.).
# • Laboratory strains of HIV-1—the T-tropic strain LAI was obtained through the AIDS Research and Reference Reagent Program, National Institutes of Health. It was amplified in MT-2 cells and titered using a virus yield assay (2). Detection was achieved through use of a reverse transcriptase assay (3), adapted for use with a Scintillation Proximity detection protocol (1) (Amersham Biosciences, Piscataway, N.J.).
# • 1. Compounds stocks were prepared by dissolving in DMSO to 30 mM. For dilution plates, compounds were serially diluted 3-fold into DMSO, using 96-well polypropylene plates, so that the concentrations were 100-fold greater than the final assay concentration. For antiviral and cytotoxicity assays, 2 μl was added per well (1% final DMSO concentration). • 2. Compounds were added from dilution plates to 96 well tissue culture plates, containing 100 μl Medium RPMI-1640, containing 10% fetal bovine serum at a concentration of <20 μM. • 3. For antiviral assays, cells were infected at a multiplicity of infection of 0.005. After 1 h at 37° C., infected cells were diluted to 200,000 cells per ml in Medium RPMI-1640, containing 10% fetal bovine serum. 100 μl of this solution was added per well, giving a final volume of 200 μl. • 4. Plates were incubated at 37° C. in a humidified CO2 incubator and harvested after 5 days. • 5. Viral infections were monitored by measuring reverse transcriptase activity in the supernatants of infected wells as described above. The percent inhibition for each compound was calculated by quantifying the readout level in cells infected in the presence of each compound as a percentage of that observed for cells infected in the absence of compound and subtracting such a determined value from 100. • 6. An EC50 provides a method for comparing the antiviral potency of the compounds of this invention. The effective concentration for fifty percent inhibition (EC50) was calculated with the Microsoft Excel Xlfit curve fitting software. For each compound, curves were generated from percent inhibition calculated at 8 different concentrations by using a four paramenter logistic model (model 205).
# in vitro [9] = conditions: dog, serum
# Method: as §2
# in vitro [10] = conditions: monkey, serum
# Method: as §2
# in vitro [11] = conditions: rat, serum
# Method: as §2
# dog hepatocytes = assay: Hydrolysis of prodrug in hepatocytes (dog); type: in vitro ADME
# Method: (§1) The in vitro intrinsic clearance of Ibb in hepatocytes (Clint) was calculated as follows: Clint(μL/min/million cells)=Rate/CE where Rate is the rate of metabolism in hepatocytes (pmol/min/million cells), and CE is the concentration of Ibb in the incubation. The in vitro intrinsic clearance of Icb in hepatocytes (Clint) was calculated as follows: Clint(μL/min/million cells)=Rate/CE where Rate is the rate of metabolism in hepatocytes (pmol/min/million cells), and CE is the concentration of Icb in the incubation.
# rat hepatocytes = assay: Hydrolysis of prodrug in hepatocytes (rat); type: in vitro ADME
# Method: as §1
# [12] = Tris-HCl buffer (0.1 M, pH 7.5), 37°C, 0 min
smiles,measurement,setting,value
"COc1ncc(OC)c2c(C(=O)C(=O)N3CCN(C(=O)c4ccccc4)CC3)c[nH]c12 [IVa, N-(benzoyl)-N′-[(4,7-dimethoxy-6-azaindol-3-yl)-oxoacetyl]piperazine]",Iab / IVa Formed,[1]; [12],0.011 µM
same,% IVa Formed (of starting concentration of Iab),"[1]; Tris-HCl buffer, 0 min",0.11%
same,% IVa Formed (of starting concentration of Iab),"[1]; Tris-HCl buffer, 20 min",0.081%
same,Iab / IVa Formed,"[1]; Tris-HCl buffer, 20 min",0.008 µM
same,% IVa Formed (of starting concentration of Iab),"[1]; Tris-HCl buffer, 40 min",0.076%
same,Iab / IVa Formed,"[1]; Tris-HCl buffer, 40 min",0.008 µM
same,% IVa Formed (of starting concentration of Iab),"[1]; Tris-HCl buffer, 60 min",0.088%
same,Iab / IVa Formed,"[1]; Tris-HCl buffer, 60 min",0.009 µM
same,Iab / IVa Formed,"[2]; 37°C, 0 min",0.066 µM
same,Iab / IVa Formed,[2]; 15 min,0.85 µM
same,Iab / IVa Formed,[2]; 30 min,1.6 µM
same,Iab / IVa Formed,[2]; 45 min,2.5 µM
same,Iab / IVa Formed,[2]; 60 min,3.2 µM
same,Iab / IVa Formed,[2]; 90 min,4.4 µM
same,Iab / IVa Formed,"[3]; 37°C, 0 min",0.10 µM
same,Iab / IVa Formed,[3]; 15 min,0.10 µM
same,Iab / IVa Formed,[3]; 30 min,0.15 µM
same,Iab / IVa Formed,[3]; 45 min,0.20 µM
same,Iab / IVa Formed,[3]; 60 min,0.24 µM
same,Iab / IVa Formed,[3]; 90 min,0.32 µM
same,solubility,"physchem; aqueous, aqueous buffer",40 to 900 µg/mL
same,% IVa Formed (of starting concentration of Iab),[4]; 0 min,0.24%
same,Iab / IVa Formed,"[4]; 37°C, 0 min",0.019 µM
same,% IVa Formed (of starting concentration of Iab),[4]; 20 min,0.70%
same,Iab / IVa Formed,[4]; 20 min,0.056 µM
same,% IVa Formed (of starting concentration of Iab),[4]; 40 min,0.90%
same,Iab / IVa Formed,[4]; 40 min,0.072 µM
same,% IVa Formed (of starting concentration of Iab),[4]; 60 min,1.2%
same,Iab / IVa Formed,[4]; 60 min,0.093 µM
same,% IVa Formed (of starting concentration of Iab),[5]; 0 min,0.55%
same,Iab / IVa Formed,[5]; 0 min,0.061 µM
same,% IVa Formed (of starting concentration of Iab),[5]; 15 min,0.59%
same,Iab / IVa Formed,[5]; 15 min,0.067 µM
same,% IVa Formed (of starting concentration of Iab),[5]; 30 min,0.50%
same,Iab / IVa Formed,[5]; 30 min,0.057 µM
same,% IVa Formed (of starting concentration of Iab),[5]; 45 min,0.65%
same,Iab / IVa Formed,[5]; 45 min,0.073 µM
same,% IVa Formed (of starting concentration of Iab),[5]; 60 min,0.75%
same,Iab / IVa Formed,[5]; 60 min,0.084 µM
same,Iab / IVa Formed,"[6]; 37°C, 0 min",0.20 µM
same,Iab / IVa Formed,[6]; 15 min,0.48 µM
same,Iab / IVa Formed,[6]; 30 min,0.75 µM
same,Iab / IVa Formed,[6]; 45 min,1.2 µM
same,Iab / IVa Formed,[6]; 60 min,1.5 µM
same,Iab / IVa Formed,[6]; 90 min,2.0 µM
same,% IVa Formed (of starting concentration of Iab),[7]; 0 min,0.13%
same,Iab / IVa Formed,[7]; 0 min,0.011 µM
same,% IVa Formed (of starting concentration of Iab),[7]; 20 min,0.28%
same,Iab / IVa Formed,[7]; 20 min,0.024 µM
same,% IVa Formed (of starting concentration of Iab),[7]; 40 min,0.48%
same,Iab / IVa Formed,[7]; 40 min,0.041 µM
same,% IVa Formed (of starting concentration of Iab),[7]; 60 min,0.56%
same,Iab / IVa Formed,[7]; 60 min,0.048 µM
same,pEC50,[8],> 6.00
O=C(C(=O)N1CCN(C(=O)c2ccccc2)CC1)c1c[nH]c2c(-n3ccnn3)ncc(F)c12 [IVb],solubility,"physchem; aqueous, aqueous buffer",7 to 190 µg/mL
same,pEC50,[8],> 6.00
COc1cnc(-n2cnc(C)n2)c2[nH]cc(C(=O)C(=O)N3CCN(C(=O)c4ccccc4)CC3)c12 [IVc],pEC50,[8],> 6.00
"COc1cnc(OC)c2c1c(C(=O)C(=O)N1CCN(C(=O)c3ccccc3)CC1)cn2COP(=O)(O)O [Iab, {3-[(4-benzoylpiperazin-1-yl)(oxo)acetyl]-4,7-dimethoxy-1H-pyrrolo[2,3-c]pyridin-1-yl}methyl dihydrogen phosphate, L-lysine salt (1:1)]",stability / conversion of prodrug to parent in Tris-HCl buffer,"[1]; 37°C, 60 min (Iab) or 90 min (Ibb, Icb)",stable
same,Iab / IVa Formed,[1]; [12],10 µM
same,Iab / IVa Formed,"[1]; Tris-HCl buffer, 20 min",10 µM
same,Iab / IVa Formed,"[1]; Tris-HCl buffer, 40 min",7.6 µM
same,Iab / IVa Formed,"[1]; Tris-HCl buffer, 60 min",10 µM
same,half-life at 10 μM,in vitro [9],3.03 h
same,Iab / IVa Formed,"[2]; 37°C, 0 min",9.2 µM
same,Iab / IVa Formed,[2]; 15 min,9.0 µM
same,Iab / IVa Formed,[2]; 30 min,7.8 µM
same,Iab / IVa Formed,[2]; 45 min,7.8 µM
same,Iab / IVa Formed,[2]; 60 min,7.1 µM
same,Iab / IVa Formed,[2]; 90 min,6.7 µM
same,Iab / IVa Formed,"[3]; 37°C, 0 min",9.5 µM
same,Iab / IVa Formed,[3]; 15 min,9.2 µM
same,Iab / IVa Formed,[3]; 30 min,9.0 µM
same,Iab / IVa Formed,[3]; 45 min,9.6 µM
same,Iab / IVa Formed,[3]; 60 min,9.1 µM
same,Iab / IVa Formed,[3]; 90 min,9.4 µM
same,solubility,"physchem; aqueous solution, aqueous buffer",> 12000 µg/mL
same,solubility,"physchem; aqueous solution, pH 1.4, simulated gastric fluid",220 µg/mL
same,Iab / IVa Formed,"[4]; 37°C, 0 min",8.0 µM
same,Iab / IVa Formed,[4]; 20 min,8.8 µM
same,Iab / IVa Formed,[4]; 40 min,10 µM
same,Iab / IVa Formed,[4]; 60 min,10 µM
same,conversion of prodrug to parent in blood containing EDTA,"[4]; rat blood, 37°C, 60 min (Iab) or 90 min (Ibb, Icb)",< 2% and 1.2%
same,Iab / IVa Formed,[5]; 0 min,11 µM
same,Iab / IVa Formed,[5]; 15 min,11 µM
same,Iab / IVa Formed,[5]; 30 min,7.1 µM
same,Iab / IVa Formed,[5]; 45 min,9.8 µM
same,Iab / IVa Formed,[5]; 60 min,9.8 µM
same,Iab / IVa Formed,"[6]; 37°C, 0 min",9.0 µM
same,Iab / IVa Formed,[6]; 15 min,7.3 µM
same,Iab / IVa Formed,[6]; 30 min,6.8 µM
same,Iab / IVa Formed,[6]; 45 min,6.5 µM
same,Iab / IVa Formed,[6]; 60 min,6.3 µM
same,Iab / IVa Formed,[6]; 90 min,6.3 µM
same,half-life at 10 μM,in vitro [10],6.08 h
same,half-life at 10 μM,in vitro [11],1.33 h
same,hydrolysis in the presence of hepatocytes,"dog hepatocytes; dog hepatocytes, qualitative",hydrolyzed
same,Iab / IVa Formed,[7]; 0 min,8.5 µM
same,Iab / IVa Formed,[7]; 20 min,9.2 µM
same,Iab / IVa Formed,[7]; 40 min,9.2 µM
same,Iab / IVa Formed,[7]; 60 min,8.7 µM
same,hydrolysis in the presence of hepatocytes,"rat hepatocytes; rat hepatocytes, qualitative",hydrolyzed
"COc1cnc(-n2cnc(C)n2)c2c1c(C(=O)C(=O)N1CCN(C(=O)c3ccccc3)CC1)cn2COP(=O)(O)O [Icb, [3-[(4-benzoylpiperazin-1-yl)(oxo)acetyl]-4-methoxy-7-(3-methyl-1H-1,2,4-triazol-1-yl)-1H-pyrrolo[2,3-c]pyridin-1-yl]methyl dihydrogen phosphate, 2-amino-2-(hydroxymethyl)propane-1,3-diol salt (1:1)]",half-life at 10 μM,in vitro [9],2.6 h
same,half-life at 10 μM,in vitro [10],0.5 h
same,half-life at 10 μM,in vitro [11],0.7 h
same,hydrolysis in the presence of hepatocytes,dog hepatocytes,hydrolyzed
same,hydrolysis in the presence of hepatocytes,rat hepatocytes,hydrolyzed
